Patent publication US8202856B2 (Merck Serono SA, priority 2007, dated 2012)
Where a name gives a salt, the structure may show the parent alone.

Target: S1P1 receptor (Homo sapiens, UniProt P21453)
Assay: 35S-GTPγS binding, membranes from CHO cells expressing S1P1
Format: biochemical
Conditions: CHO cell membranes expressing S1P1
Method: Receptor binding assay: Membranes were prepared from CHO cells expressing S1P1 or S1P3 for use in ligand and 35S-GTPTS binding studies. Cells were suspended in 50 mM TRIS, pH 7.4, 2 mM EDTA, 250 mM Sucrose (buffer A) and 1× Complete protease inhibitor cocktail (Roche), and disrupted at 4° C. by nitrogen decompression using a cell disruption bomb (Parr Instrument). Following centrifugation at 1000 RPM for 10 min at 4° C., the supernatant was suspended in buffer A and centrifuged again at 19000 RPM for 60 min at 4° C. The pellet was then suspended in 10 mM HEPES, pH 7.4, 1 mM EDTA, 250 mM Sucrose (Buffer B), and 1× Complete EDTA-free protease inhibitor cocktail and homogenized using a potter. Membranes were flash frozen in liquid nitrogen and stored at −80° C. [33P]sphingosine 1-phosphate (3000 Ci/mmol; American Radiolabeled Chemicals, Inc.) was added to test compounds in DMSO. Membranes and WGA SPA beads (GE Healthcare) were added to give a final volume of 100 μl in 96-well plates with assay concentrations of […] [33P]sphingosine 1-phosphate (respectively for S1P1 or S1P3), 50 mM HEPES, pH 7.5, 5 mM MgCl2, 100 mM NaCl, 0.4% fatty acid-free BSA, 1-5 μg/well of proteins and 100 μg/well of WGA SPA beads. Binding was performed for 60 min at room temperature on a shaker and bound radioactivity was measured on a PerkinElmer 1450 MicroBeta counter. Specific binding was calculated by subtracting remaining radioactivity in the presence of 1000-fold excess of unlabeled S1P. Binding data were analyzed using the GraphPad Prism program.
Measurements of ^35S-GTPγS Binding: Membranes (1 to 10 μg protein) prepared as described above, were incubated in 96-well Scintiplates (PerkinElmer) with test compounds diluted in DMSO, in 180 μl of 20 mM HEPES, pH 7.4, 10 mM MgCl2, 2 μg/well Saponin, 0.2% fatty acid free BSA (Assay buffer), 140 mM NaCl and 1.7 μM GDP. The assay was initiated with the addition of 20 μl of 1.5 nM [35S]-GTPγS (1100 Ci/mmol; GE Healthcare) in assay buffer. After 60 min incubation at 30° C. on a shaker, plates were centrifuged for 10 min at 2000 RPM. Supernatant was discarded and membrane bound radioactivity was measured on a PerkinElmer 1450 MicroBeta counter. Triplicate samples were averaged and expressed as response relative to S1P activation in absence of compound (n=2).

S1P1 receptor, sequence (P21453 whole entry): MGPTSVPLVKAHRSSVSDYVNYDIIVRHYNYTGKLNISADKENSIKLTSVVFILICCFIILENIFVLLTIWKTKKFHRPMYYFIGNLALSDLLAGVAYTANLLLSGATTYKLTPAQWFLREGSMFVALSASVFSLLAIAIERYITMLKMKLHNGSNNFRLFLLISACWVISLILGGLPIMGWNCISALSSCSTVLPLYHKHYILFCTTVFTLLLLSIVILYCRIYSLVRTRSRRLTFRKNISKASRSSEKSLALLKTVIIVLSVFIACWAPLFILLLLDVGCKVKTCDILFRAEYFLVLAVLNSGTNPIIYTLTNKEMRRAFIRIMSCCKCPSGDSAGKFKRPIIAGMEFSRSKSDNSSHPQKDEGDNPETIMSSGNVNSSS

EC50	SMILES
418 nM	CS(=O)(=O)c1cccc(-c2noc(-c3nnn(-c4ccccc4F)c3-c3ccccn3)n2)c1 [Example 84, 2-(1-(2-fluorophenyl)-4-{3-[3-(methylsulfonyl)phenyl]-1,2,4-oxadiazol-5-yl}-1H-1,2,3-triazol-5-yl)pyridine]
230 nM	CC(=O)Nc1ccc(-c2noc(-c3nnn(-c4ccccc4F)c3-c3ccncc3)n2)cn1 [Example 145, N-(5-{5-[1-(2-fluorophenyl)-5-pyridin-4-yl-1H-1,2,3-triazol-4-yl]-1,2,4-oxadiazol-3-yl}pyridin-2-yl)acetamide]
873 nM	COc1ccccc1-c1noc(-c2nnn(-c3ccccc3F)c2-c2ccccn2)n1 [Example 67, 2-{1-(2-fluorophenyl)-4-[3-(2-methoxyphenyl)-1,2,4-oxadiazol-5-yl]-1H-1,2,3-triazol-5-yl}pyridine]
21 nM	Fc1ccccc1-n1nnc(-c2nc(-c3ccc(CN4CCC4)cc3)no2)c1-c1ccncc1 [Example 138, 4-[4-{3-[4-(azetidin-1-ylmethyl)phenyl]-1,2,4-oxadiazol-5-yl}-1-(2-fluorophenyl)-1H-1,2,3-triazol-5-yl]pyridine]
43 nM	OCCc1ccc(-c2noc(-c3nnn(-c4ccccc4F)c3-c3ccncc3)n2)cc1 [Example 150, 2-(4-{5-[1(2-fluorophenyl)-5-pyridin-4-yl-1H-1,2,3-triazol-4-yl]-1,2,4-oxadiazol-3-yl}phenyl)ethanol]
54 nM	OCc1cccc(-c2noc(-c3nnn(-c4ccccc4F)c3-c3ccncc3)n2)c1 [Example 111, (3-{5-[1-(2-fluorophenyl)-5-pyridin-4-yl-1H-1,2,3-triazol-4-yl]-1,2,4-oxadiazol-3-yl}phenyl)methanol]
226 nM	CN(C)Cc1cccc(-c2noc(-c3nnn(-c4ccccc4F)c3-c3ccncc3)n2)c1 [Example 94, 1-(3-{5-[1-(2-fluorophenyl)-5-pyridin-4-yl-1H-1,2,3-triazol-4-yl]-1,2,4-oxadiazol-3-yl}phenyl)-N,N-dimethylmethanamine]
176 nM	Fc1ccccc1-n1nnc(-c2nc(-c3cccc(Cn4ccnc4)c3)no2)c1-c1ccncc1 [Example 82, 4-(1-(2-fluorophenyl)-4-{3-[3-(1H-imidazol-1-ylmethyl)phenyl]-1,2,4-oxadiazol-5-yl}-1H-1,2,3-triazol-5-yl)pyridine]
918 nM	CCN1CCc2ccc(-c3noc(-c4nnn(-c5ccccc5F)c4-c4ccncc4)n3)cc2C1 [Example 154, 2-ethyl-7-{5-[1-(2-fluorophenyl)-5-pyridin-4-yl-1H-1,2,3-triazol-4-yl]-1,2,4-oxadiazol-3-yl}-1,2,3,4-tetrahydroisoquinoline]
1420 nM	CC(=O)N1CCC(c2noc(-c3nnn(-c4ccccc4F)c3-c3ccncc3)n2)CC1 [Example 55, 4-[4-[3-(1-acetylpiperidin-4-yl)-1,2,4-oxadiazol-5-yl]-1-(2-fluorophenyl)-1H-1,2,3-triazol-5-yl]pyridine]
49 nM	NC(=O)c1ccc(-c2noc(-c3nnn(-c4ccccc4F)c3-c3ccncc3)n2)cc1 [Example 73, 4-{5-[1-(2-fluorophenyl)-5-pyridin-4-yl-1H-1,2,3-triazol-4-yl]-1,2,4-oxadiazol-3-yl}benzamide]
251 nM	Fc1ccccc1-n1nnc(-c2nc(-c3ccc4[nH]cnc4c3)no2)c1-c1ccncc1 [Example 155, 5-{5-[1-(2-fluorophenyl)-5-pyridin-4-yl-1H-1,2,3-triazol-4-yl]-1,2,4-oxadiazol-3-yl}-1H-benzimidazole]
26 nM	Fc1ccccc1-n1nnc(-c2nc(-c3ccncc3)no2)c1-c1ccccn1 [Example 66, 2-[1-(2-fluorophenyl)-4-(3-pyridin-4-yl-1,2,4-oxadiazol-5-yl)-1H-1,2,3-triazol-5-yl]pyridine]
583 nM	COCc1c(-c2nc(-c3ccc(S(N)(=O)=O)cc3)no2)nnn1-c1ccccc1F [Example 76, 4-{5-[1-(2-fluorophenyl)-5-(methoxymethyl)-1H-1,2,3-triazol-4-yl]-1,2,4-oxadiazol-3-yl}benzenesulfonamide]
646 nM	O=C(O)c1ccc(-c2noc(-c3nnn(-c4ccccc4F)c3-c3ccccc3)n2)cc1F [Example 23, 2-Fluoro-4-{5-[1-(2-fluorophenyl)-5-phenyl-1H-1,2,3-triazole-4-yl]-1,2,4-oxadiazole-3-yl}benzoic acid]
42 nM	Fc1ccccc1-n1nnc(-c2nc(-c3cccnc3)no2)c1-c1ccncc1 [Example 42, 3-{5-[1-(2-fluorophenyl)-5-pyridin-4-yl-1H-1,2,3-triazol-4-yl]-1,2,4-oxadiazol-3-yl}pyridine]
1100 nM	CC(C)(C)OC(=O)NCc1ccc(-c2noc(-c3nnn(-c4ccccc4F)c3-c3ccncc3)n2)cc1 [Example 74, tert-butyl (4-{5-[1-(2-fluorophenyl)-5-pyridin-4-yl-1H-1,2,3-triazol-4-yl]-1,2,4-oxadiazol-3-yl}benzyl)carbamate]
953 nM	Fc1ccccc1-n1nnc(-c2nc(-c3cccnc3)no2)c1C1CCCO1 (centres unmarked) [Example 54]
360 nM	CS(=O)(=O)NC1CCN(Cc2ccc(-c3noc(-c4nnn(-c5ccccc5F)c4-c4ccncc4)n3)cc2)CC1 [Example 146, N-[1-(4-{5-[1-(2-fluorophenyl)-5-pyridin-4-yl-1H-1,2,3-triazol-4-yl]-1,2,4-oxadiazol-3-yl}benzyl)piperidin-4-yl]methanesulfonamide]
218 nM	COCCN(C)Cc1ccc(-c2noc(-c3nnn(-c4ccccc4F)c3-c3ccncc3)n2)cc1 [Example 166, N-(4-(5-(1-(2-fluorophenyl)-5-(pyridin-4-yl)-1H-1,2,3-triazol-4-yl)-1,2,4-oxadiazol-3-yl)benzyl)-2-methoxy-N-methylethanamine]
27 nM	Fc1ccccc1-n1nnc(-c2nc(-c3ccc(CNC4CC4)cc3)no2)c1-c1ccncc1 [Example 164, N-(4-{5-[1-2-fluorophenyl)-5-pyridin-4-yl-1H-1,2,3-triazol-4-yl]-1,2,4-oxadiazol-3-yl}benzyl)cyclopropanamine formate]
230 nM	Fc1ccccc1-n1nnc(-c2nc(-c3cccnc3)no2)c1C1CCCC1 [Example 79, 3-{5-[5-cyclopentyl-1-(2-fluorophenyl)-1H-1,2,3-triazol-4-yl]-1,2,4-oxadiazol-3-yl}pyridine]
980 nM	Fc1ccccc1-n1nnc(-c2nc(-c3ccncc3)no2)c1C1CCCC1 [Example 72, 4-{5-[5-cyclopentyl-1-(2-fluorophenyl)-1H-1,2,3-triazol-4-yl]-1,2,4-oxadiazol-3-yl}pyridine]
56 nM	O=C(O)C1CCCN(Cc2ccc(-c3noc(-c4nnn(-c5ccccc5F)c4-c4ccncc4)n3)cc2)C1 (centres unmarked) [Example 158, 1-(4-{5-[1-(2-fluorophenyl)-5-pyridin-4-yl-1H-1,2,3-triazol-4-yl]-1,2,4-oxadiazol-3-yl}benzyl)piperidine-3-carboxylic acid]
71 nM	Fc1ccccc1-n1nnc(-c2nc(-c3ccc(CN4CC[C@@H](F)C4)cc3)no2)c1-c1ccncc1 [Example 160, 4-{1-(2-fluorophenyl)-4-[3-(4-{[(3R)-3-fluoropyrrolidin-1-yl]methyl}phenyl)-1,2,4-oxadiazol-5-yl]-1H-1,2,3-triazol-5-yl}pyridine]
108 nM	CN(CCO)Cc1ccc(-c2noc(-c3nnn(-c4ccccc4F)c3-c3ccncc3)n2)cc1 [Example 144, 2-[(4-{5-[1-(2-fluorophenyl)-5-pyridin-4-yl-1H-1,2,3-triazol-4-yl]-1,2,4-oxadiazol-3-yl}benzyl)(methyl)amino]ethanol]
27 nM	Fc1ccccc1-n1nnc(-c2nc(-c3ccc4c(c3)CCN4)no2)c1-c1ccncc1 [Example 156, 5-{5-[1-(2-fluorophenyl)-5-pyridin-4-yl-1H-1,2,3-triazol-4-yl]-1,2,4-oxadiazol-3-yl}indoline hydrochloride]
1840 nM	O=C(O)c1ccc(-c2noc(-c3nnn(-c4ccccc4F)c3-c3ccccc3)n2)cc1 [Example 24, 4-{5-[1-(2-Fluorophenyl)-5-phenyl-1H-1,2,3-triazole-4-yl]-1,2,4-oxadiazole-3-yl}benzoic acid]
1030 nM	Fc1ccccc1-n1nnc(-c2nc(-c3ccco3)no2)c1-c1ccncc1 [Example 89, 4-{1-(2-fluorophenyl)-4-[3-(2-furyl)-1,2,4-oxadiazol-5-yl]-1H-1,2,3-triazol-5-yl}pyridine]
